Experimental data from ChEMBL document CHEMBL3352567, “Radiosynthesis and ex vivo evaluation of [(18)F]-(S)-3-(6-(3-fluoropropoxy)benzo[d]isoxazol-3-yl)-5-(methoxymethyl)oxazolidin-2-one for imaging MAO-B with PET” (Bioorg Med Chem Lett, 2015).
Blank lines part the entries; values can stand above or below the molecule they belong to.

Key:
[1] = biological target: T1, Amine oxidase [flavin-containing] B (Homo sapiens, UniProt P27338); test: Inhibition of human recombinant MAO-B by luminescence analysis
T1 sequence (P27338 whole entry): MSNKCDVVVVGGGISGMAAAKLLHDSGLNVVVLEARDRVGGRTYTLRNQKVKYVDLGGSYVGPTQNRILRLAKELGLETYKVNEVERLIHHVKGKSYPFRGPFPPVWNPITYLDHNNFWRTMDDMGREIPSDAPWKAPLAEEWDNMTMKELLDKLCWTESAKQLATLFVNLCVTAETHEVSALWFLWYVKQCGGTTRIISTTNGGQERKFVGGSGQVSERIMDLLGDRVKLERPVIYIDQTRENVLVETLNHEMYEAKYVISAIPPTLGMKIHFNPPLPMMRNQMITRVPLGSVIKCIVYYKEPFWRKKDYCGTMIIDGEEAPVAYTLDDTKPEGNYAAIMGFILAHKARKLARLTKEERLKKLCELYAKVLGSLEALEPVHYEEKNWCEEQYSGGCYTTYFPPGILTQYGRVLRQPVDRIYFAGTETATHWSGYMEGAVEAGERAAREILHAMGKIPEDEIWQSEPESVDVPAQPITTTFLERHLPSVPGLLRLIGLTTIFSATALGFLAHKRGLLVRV

Homo sapiens = species: Homo sapiens; test: Selectivity index, ratio of IC50 for human recombinant MAO-B to IC50 for human recombinant MAO-A
[2] = n-Octanol-phosphate buffered saline distribution coefficient, log D of the compound at pH 7.4 by shake flask method; assay type: physicochemical
Cerebellum [3] = test: Drug uptake in conscious Sprague-Dawley rat cerebellum at < 10 nmol/kg, tail-vein injections at 15 mins in presence of 2 mg/kg, ip L-deprenyl inhibitor for 1 hr; assay type: ADME, organism-based; design: dose 2 mg/kg, route intraperitoneal; settings: in vivo, 0.25 h
Brain [4] = test: Drug uptake in conscious Sprague-Dawley rat brain region at < 10 nmol/kg, tail-vein injections at 15 mins in presence of 2 mg/kg, ip L-deprenyl inhibitor for 1 hr; assay type: ADME, organism-based; design: dose 2 mg/kg, route intraperitoneal; settings: in vivo, 0.25 h
Striatum [5] = test: Drug uptake in conscious Sprague-Dawley rat striatum at < 10 nmol/kg, tail-vein injections at 40 mins in presence of 2 mg/kg, ip L-deprenyl inhibitor for 1 hr; assay type: ADME, organism-based; design: dose 2 mg/kg, route intraperitoneal; settings: in vivo
Cortex [6] = test: Drug uptake in conscious Sprague-Dawley rat cortex at < 10 nmol/kg, tail-vein injections at 40 mins in presence of 2 mg/kg, ip L-deprenyl inhibitor for 1 hr; assay type: ADME, organism-based; design: dose 2 mg/kg, route intraperitoneal; settings: in vivo
Cerebellum [7] = test: Drug uptake in conscious Sprague-Dawley rat cerebellum at < 10 nmol/kg, tail-vein injections at 40 mins in presence of 2 mg/kg, ip L-deprenyl inhibitor for 1 hr; assay type: ADME, organism-based; design: dose 2 mg/kg, route intraperitoneal; settings: in vivo
Brain [8] = test: Drug uptake in conscious Sprague-Dawley rat brain region at < 10 nmol/kg, tail-vein injections at 40 mins in presence of 2 mg/kg, ip L-deprenyl inhibitor for 1 hr; assay type: ADME, organism-based; design: dose 2 mg/kg, route intraperitoneal; settings: in vivo
[9] = Plasma concentration in conscious Sprague-Dawley rat plasma assessed as radiotracer at < 10 nmol/kg, tail-vein injections at 2 mins; assay type: ADME; settings: iv, read-out: Stability
[10] = Plasma concentration in conscious Sprague-Dawley rat plasma assessed as radiotracer at < 10 nmol/kg, tail-vein injections at 40 mins; assay type: ADME, cell-free; settings: iv, read-out: Stability
Bone [11] = test: Drug metabolism in conscious Sprague-Dawley rat bone assessed as parent drug level at < 10 nmol/kg, tail-vein injections at 2 mins; assay type: ADME, tissue-based, Bone element; settings: in vivo, iv
Bone [12] = test: Drug metabolism in conscious Sprague-Dawley rat bone assessed as parent drug level at < 10 nmol/kg, tail-vein injections at 40 mins; assay type: ADME, tissue-based, Bone element; settings: in vivo, iv
Striatum [13] = test: Drug uptake in conscious Sprague-Dawley rat striatum at < 10 nmol/kg, tail-vein injections at 2 mins; assay type: ADME, tissue-based; settings: in vivo, iv
Cortex [14] = test: Drug uptake in conscious Sprague-Dawley rat cortex at < 10 nmol/kg, tail-vein injections at 2 mins; assay type: ADME, tissue-based; settings: in vivo, iv
Cerebellum [15] = test: Drug uptake in conscious Sprague-Dawley rat cerebellum at < 10 nmol/kg, tail-vein injections at 2 mins; assay type: ADME, tissue-based; settings: in vivo, iv
Brain [16] = test: Drug uptake in conscious Sprague-Dawley rat brain region at < 10 nmol/kg, tail-vein injections at 2 mins; assay type: ADME, tissue-based; settings: in vivo, iv
Striatum [17] = test: Drug uptake in conscious Sprague-Dawley rat striatum at < 10 nmol/kg, tail-vein injections at 15 mins; assay type: ADME, tissue-based; settings: in vivo, iv, 0.25 h
Cortex [18] = test: Drug uptake in conscious Sprague-Dawley rat cortex at < 10 nmol/kg, tail-vein injections at 15 mins; assay type: ADME, tissue-based; settings: in vivo, iv, 0.25 h
Cerebellum [19] = test: Drug uptake in conscious Sprague-Dawley rat cerebellum at < 10 nmol/kg, tail-vein injections at 15 mins; assay type: ADME, tissue-based; settings: in vivo, iv, 0.25 h
Brain [20] = test: Drug uptake in conscious Sprague-Dawley rat brain region at < 10 nmol/kg, tail-vein injections at 15 mins; assay type: ADME, tissue-based; settings: in vivo, iv, 0.25 h
Striatum [21] = test: Drug uptake in conscious Sprague-Dawley rat striatum at < 10 nmol/kg, tail-vein injections at 40 mins; assay type: ADME, tissue-based; settings: in vivo, iv
Cortex [22] = test: Drug uptake in conscious Sprague-Dawley rat cortex at < 10 nmol/kg, tail-vein injections at 40 mins; assay type: ADME, tissue-based; settings: in vivo, iv
Cerebellum [23] = test: Drug uptake in conscious Sprague-Dawley rat cerebellum at < 10 nmol/kg, tail-vein injections at 40 mins; assay type: ADME, tissue-based; settings: in vivo, iv
Brain [24] = test: Drug uptake in conscious Sprague-Dawley rat brain region at < 10 nmol/kg, tail-vein injections at 40 mins; assay type: ADME, tissue-based; settings: in vivo, iv
Striatum [25] = test: Drug uptake in conscious Sprague-Dawley rat striatum at < 10 nmol/kg, tail-vein injections at 15 mins in presence of 2 mg/kg, ip L-deprenyl inhibitor for 1 hr; assay type: ADME, organism-based; design: dose 2 mg/kg, route intraperitoneal; settings: in vivo, 0.25 h
Cortex [26] = test: Drug uptake in conscious Sprague-Dawley rat cortex at < 10 nmol/kg, tail-vein injections at 15 mins in presence of 2 mg/kg, ip L-deprenyl inhibitor for 1 hr; assay type: ADME, organism-based; design: dose 2 mg/kg, route intraperitoneal; settings: in vivo, 0.25 h

IC50 [1]: 120 nM
Ratio IC50 (Homo sapiens): 54
SMILES: COC[C@@H]1CN(c2noc3cc(OCCCCF)ccc23)C(=O)O1

IC50 [1]: 110 nM
Ratio IC50 (Homo sapiens): 7730
SMILES: COC[C@@H]1CN(c2noc3cc(OCCCCCF)ccc23)C(=O)O1

More lines, now with the values behind:

SMILES: COC[C@@H]1CN(c2noc3cc(OCCCF)ccc23)C(=O)O1
IC50 [1]: 330 nM
Ratio IC50 (Homo sapiens): 6
logD [2]: 2.6

SMILES: COC[C@@H]1CN(c2noc3cc(OCCC[18F])ccc23)C(=O)O1
SUV (Cerebellum [3]): 0.5
SUV (Brain [4]): 0.5
SUV (Striatum [5]): 0.2
SUV (Cortex [6]): 0.2
SUV (Cerebellum [7]): 0.2
SUV (Brain [8]): 0.2
remaining at 2 min [9]: 90%
remaining at 40 min [10]: 33%
SUV (Bone [11]): 0.45
SUV (Bone [12]): 3.1
SUV (Striatum [13]): 1.7
SUV (Cortex [14]): 1.7
SUV (Cerebellum [15]): 1.7
SUV (Brain [16]): 1.7
SUV (Striatum [17]): 0.51
SUV (Cortex [18]): 0.51
SUV (Cerebellum [19]): 0.51
SUV (Brain [20]): 0.51
SUV (Striatum [21]): 0.19
SUV (Cortex [22]): 0.19
SUV (Cerebellum [23]): 0.19
SUV (Brain [24]): 0.19
SUV (Striatum [25]): 0.5
SUV (Cortex [26]): 0.5

SMILES: COC[C@@H]1CN(c2noc3cc(OCCCC(F)(F)F)ccc23)C(=O)O1
IC50 [1]: 47 nM
Ratio IC50 (Homo sapiens): 4680
logD [2]: 3.34
